{"source": "paper PMC5543065", "about": "“Mechanistic and structural basis for activation of cardiac myosin force production by omecamtiv mecarbil” (Nature Communications, 2017)", "biological_target": "T1, bovine β-cardiac myosin S1 fragment (cardiac myosin, MYH7) (Bos taurus, UniProt Q9BE39)", "T1 construct": "Subfragment-1 (S1), AA 1–840; with MYL3 (Uniprot P85100)", "T1 sequence (Q9BE39 1-840)": "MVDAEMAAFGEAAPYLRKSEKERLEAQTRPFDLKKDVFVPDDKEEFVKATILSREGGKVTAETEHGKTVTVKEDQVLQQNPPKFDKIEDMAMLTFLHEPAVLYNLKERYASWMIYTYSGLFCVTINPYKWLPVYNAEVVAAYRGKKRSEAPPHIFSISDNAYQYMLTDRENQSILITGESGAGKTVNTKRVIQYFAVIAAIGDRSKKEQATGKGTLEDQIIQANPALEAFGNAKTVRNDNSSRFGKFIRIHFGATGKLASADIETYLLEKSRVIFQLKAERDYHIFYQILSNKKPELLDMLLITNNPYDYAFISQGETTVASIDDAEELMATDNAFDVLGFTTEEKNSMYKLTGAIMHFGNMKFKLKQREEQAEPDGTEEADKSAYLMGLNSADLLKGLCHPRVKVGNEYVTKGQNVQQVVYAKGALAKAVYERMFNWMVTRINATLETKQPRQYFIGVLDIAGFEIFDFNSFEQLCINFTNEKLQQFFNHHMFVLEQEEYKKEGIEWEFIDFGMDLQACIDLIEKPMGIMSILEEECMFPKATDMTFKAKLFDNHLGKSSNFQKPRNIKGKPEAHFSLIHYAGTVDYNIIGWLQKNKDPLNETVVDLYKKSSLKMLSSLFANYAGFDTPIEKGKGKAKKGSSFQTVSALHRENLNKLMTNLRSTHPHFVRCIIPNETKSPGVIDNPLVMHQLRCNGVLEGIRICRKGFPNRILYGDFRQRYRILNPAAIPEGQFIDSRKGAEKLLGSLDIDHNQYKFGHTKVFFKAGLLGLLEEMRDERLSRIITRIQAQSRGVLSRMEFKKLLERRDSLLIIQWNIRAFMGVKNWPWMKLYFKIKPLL", "T1 sequence (P85100 2-199 partner)": "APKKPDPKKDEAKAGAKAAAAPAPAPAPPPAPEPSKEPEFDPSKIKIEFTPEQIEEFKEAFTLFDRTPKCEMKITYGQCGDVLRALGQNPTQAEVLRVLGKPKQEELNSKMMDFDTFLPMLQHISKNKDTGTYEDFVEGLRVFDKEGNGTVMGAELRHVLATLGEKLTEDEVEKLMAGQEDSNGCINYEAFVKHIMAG", "assay": "ITC; crystal structure at […] Å; SAXS", "type": "binding", "settings": "read-out: Nucleotide state / ADP-VO4 (n = 5)"}
{"smiles": "COC(=O)N1CCN(Cc2cccc(NC(=O)Nc3ccc(C)nc3)c2F)CC1", "note": "[OM, Omecamtiv mecarbil]", "values": [{"measurement": "Kd", "value": "0.29 ± 0.04", "unit": "µM"}]}
